In general, melting point refers to the temperature of the solid-liquid transition. As to `Cc1ccc(COc2cccc(F)c2C#N)cc1`, the melting point was in the range of 81 to 83 °C.
To `O=C(OC(=O)c1ccc(C(F)(F)F)cc1)c1ccc(C(F)(F)F)cc1` belongs 130 °C; to `O=Cc1cccn1S(=O)(=O)c1ccccc1`, 76 to 77 °C; to `O=c1[nH]c2ccccc2[nH]c1=O`, 300 °C.
To `COc1cc(C(c2ccc(C)o2)c2ccc(C)o2)c([N+](=O)[O-])cc1OC` belongs 98 °C; to `N#CC(c1ccc(Cl)cc1)N1CCOCC1` (centres undefined), 76 to 77 °C.
In the case of `OCC1OC(O)C(O)C1O` (centres undefined) it was 88 to 92 °C.
`Brc1cccc(-c2cnco2)c1` came in with a melting point of 59 to 61 °C.
In the case of `CC(=O)c1c(C)c[nH]c1C` it was 138 °C; in that of `Cc1nc2scc(-c3ccccc3)c2c(=O)n1NC(=O)c1ccc(Cl)cc1Cl`, 290 to 292 °C.
In the case of `O=Cc1ccc(OC2CCOCC2)cc1` it was 95 to 96 °C; in that of `NC(=S)Nc1ccc(C(=O)O)cc1`, 255 °C.
In the case of `O=C1Nc2ccccc2CCc2ccccc21` it was 246 to 248 °C.
`OCc1cn2ccccc2n1` showed a melting point of 102 to 103 °C.
To `Cc1ccc(S(=O)(=O)C2(C(=O)OC(C)C)CC2)cc1` belongs 65.5 °C; to `O=[N+]([O-])c1ccc(C(O)CNCc2ccccc2)cc1` (centres undefined), 133 to 134 °C; to `COc1cc(C=Nn2c(C)cc(C)c(C#N)c2=O)ccc1O`, 259 to 260 °C.
To `Cc1cccnc1NC(=O)C(C(F)(F)F)C(F)(F)F` belongs 181 °C.
Turning to `COc1ccc2c(c1)N(CCCN(C)C)c1ccccc1S2`, the melting point amounted to 46 °C.
`CC1CCCCN1` (centres undefined) showed a melting point of -5 to -4 °C.
In the case of `CN1CCc2c(sc(N)c2C#N)C1` it was 192 to 194 °C.
In the case of `NC(C(=O)O)c1ccccc1` (centres undefined) it was 302 °C.
In the case of `CN(C)NN=C1N=CN=C1C(N)=O` it was 205 °C; in that of `Fc1ccccc1Cl`, -43 °C; in that of `CC1=CCCC(C)(C)C1/C=C/C(C)=C/C=C/C(C)=C/C=C/C=C(C)/C=C/C=C(C)/C=C/C1=C(C)CCCC1(C)C` (centres undefined), 188 °C.
In the case of `O=C(O)c1ccc(Oc2ccccc2)nc1`, the melting point is 164 °C.
To `Nc1c(Br)cccc1C(=O)O` belongs 173 to 175 °C; to `CC1(C)C=C(C(=O)O)C(C)(C)N1O`, 202 °C.
To `CC(=NO)c1cccnc1` belongs 103 to 105 °C; to `Cc1cc(O)c(C2CC3CCC2(C)C3(C)C)cc1C` (centres undefined), 95 °C.
`CCOC(=O)C(C(C)=O)C(=O)/C=C/c1ccc(OC)c(OCc2ccccc2)c1` (centres undefined) came in with a melting point of 207 to 208 °C.
To `CC(C)(Oc1ccccc1)C(=O)O` belongs 98.5 °C.
In the case of `ON=C(CBr)c1ccc(F)cc1` it was 84 to 90 °C.
To `c1ccc(-c2cccc(-c3ccccc3)c2)cc1` belongs 87 °C.
On to `CC(C)(NC(=O)OCc1ccccc1)C(=O)O`, for which the melting point fell in the range of 77 to 80 °C.
To `CCCCCCCCCCCCCCCCCC(CC)c1ccccc1` (centres undefined) belongs 29.3 °C; to `CCN1CCN(C(=O)N[C@@H](C(=O)O)c2ccccc2)C(=O)C1=O`, 171 °C.
Take `O=S(=O)(Cl)c1ccc(-c2ccccc2)nc1`: the melting point lay within 106 to 108 °C.
In the case of `C#CC1(O)CCC2C3CCc4cc(O)ccc4C3CCC21C` (centres undefined) it was 141 °C; in that of `COC(=O)c1cncn1C`, 57 °C.
To `CN(CCCC(=O)c1cccnc1)N=O` belongs 67.5 °C; to `CC1(C)OC2OC(CO)C(O)C2O1` (centres undefined), 68 to 70 °C.
In the case of `Cc1cc(C(F)(F)F)n2nc(N)c(/N=N/c3cc(Cl)ccc3Cl)c2n1` it was 215 °C; in that of `O=Cc1cccc2cnccc12`, 115 °C.
